Like-named read-outs stand apart in the source and are kept apart here.

One series has as its target hA1 AR (Homo sapiens (Human), UniProt P30542). Kind of series: Radioligand membrane binding assay at hA1 AR ([3H]R-PIA). The conditions noted are these: for Ki: read-out: A1 Ki. On the procedure: (§1) For cell cultures used in radioligand binding assays, after harvest and homogenization, the cells were centrifuged at 200×g for 10 min, and the pellet was re-suspended in 50 mM Tris-HCl buffer (pH 7.5), containing 10 mM MgCl2. The suspension was homogenized with an electric homogenizer for 10 s and was then re-centrifuged at 20,000×g for 20 min at 4° C. The resultant membrane pellets were resuspended in buffer in the presence of 3 units/ml adenosine deaminase, and the suspension was stored at −80° C. until the binding experiments. The protein concentration was measured using the Bradford assay. Radioligand membrane binding assays

The next series concerns the target A2AAR (Homo sapiens (Human), UniProt P29274). Briefly: FCM binding of fluorescent ligand to HEK cells expressing the A2AAR. On the procedure:
(§2) Chinese hamster ovary (CHO) cells without heterologous AR expression were grown in DMEM/F12 (1:1) medium with 10% FBS, 2 mM L-glutamine, 50 U/ml penicillin/streptomycin. CHO cells expressing the A1 or A3 AR and HEK293 cells expressing the A2A AR were grown in the same medium but in the presence of 500 μg/ml hygromycin B and 800 μg/ml of G418, respectively. Cells, used for FCM analysis, were grown in 6-well plates (approximately 400,000 cells/well) and incubated at 37° C. for 24 h in the presence of 5% CO2. When confluency of the cells was reached 80% (approximately 10^6 cells/well), medium was replaced with fresh medium and MRS5449 was added in the presence or absence of competitive antagonists, and cells were processed for FCM.
(§3) The intensity of fluorescence emission of each sample was measured by using FCM. Cell suspensions were vortexed briefly before analysis on a Becton and Dickinson FACSCalibur flow cytometer (BD, Franklin Lakes, N.J.) with excitation at 488 nm. Samples were maintained in the dark during the analysis to avoid photobleaching. MFIs were obtained in the FL-1 channel in log mode. Ten thousand events were analyzed per sample. Data were collected using Cell Quest Pro software (BD, Franklin Lakes, N.J.) and analyzed by Cyflogic v. 1.2.1 software (CyFlo, Ltd., Turku, Finland).

For the next series, the target named is A1AR (Homo sapiens (Human), UniProt P30542). Kind of series: FCM binding of fluorescent ligand to CHO cells expressing the A1AR. On the procedure:
as §2, §3

Another series deals with hA2AAR (Homo sapiens (Human), UniProt P29274). Briefly: Radioligand membrane binding assay at hA2A AR ([3H]CGS21680). The conditions noted are these: read-out: A2A Ki. As for the experimental part:
as §1

Series [1] has as its target T1, hA3AR (Homo sapiens (Human), UniProt P0DMS8). Kind of series: Radioligand membrane binding assay at hA3AR ([125I]I-AB-MECA). To be noted: for Ki: read-out: A3 Ki. On the procedure: as §1
Series [2] addresses T1, hA3AR. Briefly: Fluorescent ligand binding by FCM in intact CHO cells expressing the hA3AR (preliminary, saturation, kinetics). On the procedure: In preliminary binding experiments of compounds 1-6 and MRS5449 were incubated with CHO cells expressing the hA3AR for 1 h at 37° C. in an atmosphere containing 5% CO2. The concentrations used were incubated with 1.5 μM 1, 5 μM 2, 1.5 μM 3, 10 μM 4, 20 μM 5, 15 μM 6, or 10 nM MRS5449. For further binding experiments with MRS5449, control CHO cells (CHO cells without heterologous receptor expression) and CHO cells expressing hA3AR were incubated with 10 nM MRS5449 for 3 h.
In saturation binding experiments, CHO cells expressing the hA3AR were incubated with concentrations of MRS5449 ranging from 2.5 nM to 250 nM for 1 h. To study binding kinetics of MRS5449, CHO cells expressing the hA3AR were incubated with 10 nM MRS5449 for different time intervals from 5 min to 3 h. The association and dissociation rate was measured as follows: 10 nM MRS5449 was added to CHO cells expressing the A3AR and measured total binding at different time intervals. After 90 min, dissociation was initiated by adding 10 μM of non-fluorescent A3AR antagonist MRS1220 and then measured the dissociation at different time intervals.
(§4) At the end of each time interval, the medium was removed and cells were washed three times with ice-cold DPBS. After washing, 1 ml 0.2% EDTA solution was added to each well, and cells were incubated at 37° C. for 7 min. Following cell detachment, 1 ml medium was added to each well to neutralize the EDTA. The cell suspensions were transferred to polystyrene round-bottom BD Falcon tubes (BD, Franklin Lakes, N.J.) and centrifuged for 5 min at 23° C. and 400×g. After centrifugation, the supernatant was discarded, and cells were washed with 3 ml PBS and centrifuged again at 23° C. and 400×g for 5 min. After discarding the supernatant, cells were suspended in 0.5 ml PBS and analyzed by FCM.
The mean fluorescence intensity (MFI) values of the standard particles were recorded under optimized instrument setting and converted into MESF values using the QuickCal program v. 2.3 (Bangs Laboratories, Inc., Fishers, Ind.). MFIs of receptor-bound fluorescent small molecules in this study were measured under exactly the same conditions and the assigned MESF values were extrapolated from the calibration curve.
as §3
Data analysis was performed with the Prism 5 (GraphPad, San Diego Calif.) software. The mean autofluorescence of CHO cells was measured in the absence of the fluorescent ligand. The mean fluorescence in the presence of fluorescent ligand was corrected by subtracting this value; Wood, J C S, Curr Protoc Cytom 2009; 1.4.1-1.4.14.

Another series deals with A3AR (Homo sapiens (Human), UniProt P0DMS8). Briefly: Cyclic AMP accumulation assay, antagonism of Cl-IB-MECA (Schild analysis). The series is classed as cell-based. The conditions noted are these: inhibition of forskolin-stimulated cyclic AMP by Cl-IB-MECA in CHO cells expressing the A3AR. As for the experimental part:
CHO cells stably expressing the hA3AR were seeded in 24-well plates and incubated at 37° C. overnight. The medium was removed the following day and replaced with DMEM containing 50 mM HEPES, 10 μM rolipram, 3 units/ml adenosine deaminase (Worthington Biochemical Corp., Lakewood, N.J.), and increasing concentrations of agonists and incubated for […]. Forskolin (10 μM) was added and incubated for an additional 15 min. The medium was removed, and the cells were lysed with 200 μL of 0.1 M HCl. 100 μl of the HCl solution was used in the Sigma Direct cAMP Enzyme Immunoassay following the instructions provided with the kit. The OD values were measured with a SpectraMax M5 Microplate reader (Molecular Devices, Sunnyvale, Calif.) at 405 nm.

Series [3] addresses T1, hA3AR. Briefly: FCM competitive binding in whole CHO cells using MRS5449 as tracer. To be noted: whole CHO cells expressing hA3AR; 5 nM MRS5449 tracer; 90 min at 37° C. On the procedure: Total binding was measured in the absence of the competitor.
as §4
The intensity of fluorescence emission of each sample was measured by using FCM. […] Samples were maintained in the dark during the analysis to avoid photobleaching. MFIs were obtained in the FL-1 channel in log mode. Ten thousand events were analyzed per sample.
Data analysis was performed with the Prism 5 (GraphPad, San Diego Calif.) software. The mean autofluorescence of CHO cells was measured in the absence of the fluorescent ligand.

hA1 AR, sequence (P30542 whole entry): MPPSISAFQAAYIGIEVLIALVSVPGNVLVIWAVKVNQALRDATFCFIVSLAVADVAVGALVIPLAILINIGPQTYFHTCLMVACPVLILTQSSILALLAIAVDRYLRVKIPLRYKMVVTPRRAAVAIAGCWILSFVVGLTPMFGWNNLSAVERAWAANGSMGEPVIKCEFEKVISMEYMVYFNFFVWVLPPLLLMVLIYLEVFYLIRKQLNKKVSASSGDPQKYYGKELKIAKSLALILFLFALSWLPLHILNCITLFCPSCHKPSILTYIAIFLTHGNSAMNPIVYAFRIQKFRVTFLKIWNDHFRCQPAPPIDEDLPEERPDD
hA2AAR, sequence (P29274 whole entry): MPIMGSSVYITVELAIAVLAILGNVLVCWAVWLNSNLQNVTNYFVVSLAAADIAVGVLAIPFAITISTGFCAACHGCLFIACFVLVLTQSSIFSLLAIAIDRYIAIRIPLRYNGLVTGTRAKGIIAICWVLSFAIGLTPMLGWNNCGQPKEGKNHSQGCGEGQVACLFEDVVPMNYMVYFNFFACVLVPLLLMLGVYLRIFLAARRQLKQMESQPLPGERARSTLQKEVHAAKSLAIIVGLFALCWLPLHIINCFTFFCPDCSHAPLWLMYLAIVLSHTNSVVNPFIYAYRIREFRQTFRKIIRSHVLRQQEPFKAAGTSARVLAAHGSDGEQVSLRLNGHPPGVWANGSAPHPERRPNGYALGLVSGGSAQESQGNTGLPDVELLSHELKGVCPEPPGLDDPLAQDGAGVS
T1 sequence (P0DMS8 whole entry): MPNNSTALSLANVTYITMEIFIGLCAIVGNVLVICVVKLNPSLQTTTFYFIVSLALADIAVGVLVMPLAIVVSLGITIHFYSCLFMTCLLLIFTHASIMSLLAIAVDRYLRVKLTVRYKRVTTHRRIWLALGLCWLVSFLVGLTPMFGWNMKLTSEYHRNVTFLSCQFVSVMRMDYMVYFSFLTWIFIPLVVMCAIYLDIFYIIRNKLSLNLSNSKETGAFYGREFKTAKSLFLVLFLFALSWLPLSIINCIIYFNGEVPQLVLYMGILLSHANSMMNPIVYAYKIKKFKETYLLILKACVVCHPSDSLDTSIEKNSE
A1AR, sequence (P30542 whole entry): as the sequence (P30542 whole entry) above
A2AAR, sequence (P29274 whole entry): as the sequence (P29274 whole entry) above
A3AR, sequence (P0DMS8 whole entry): as the sequence (P0DMS8 whole entry) above

One may read the Ki as the dissociation constant of the complex between target and ligand, obtained from inhibition or displacement. By Kb is commonly meant the affinity of an antagonist, worked out from how it opposes an agonist. Turning to “2-(6-Amino-3-iminio-4,5-disulfonato-3H-xanthen-9-yl)-5-((6-(4-(4-((9-chloro-2-(furan-2-yl)-[1,2,4]triazolo[1,5-c]quinazolin-5-yl)amino)-4-oxobutyl)-1H-1,2,3-triazol-1-yl)hexyl)carbamoyl)benzoate [Compound 9]”, the Ki was 0.087 µM at hA1 AR (Table 1, CHO cells expressing hA1AR, agonist radioligand [3H]R-PIA); 0.073 µM at hA2AAR (Table 1, HEK293 cells expressing hA2AAR, [3H]CGS21680); 0.0064 µM on hA3AR [1] (Table 1, CHO cells expressing hA3AR, [125I]I-AB-MECA). Further, the “binding to HEK cells expressing the A2AAR compared with binding to the A3AR (expressed as 100%)” value at A2AAR was 0.5%. Besides, the “binding to CHO cells expressing the A1AR compared with binding to the A3AR (expressed as 100%)” value on A1AR amounted to 0.3%. Moreover, the “selectivity for the A3AR” value at hA3AR [1] (versus hA1 and hA2AARs, radioligand binding Ki) is recorded as “over 10 fold”. Further, the t1/2 for association at hA3AR [2] (10 nM MRS5449, CHO cells expressing hA3AR) was 53 min. Also, the “Kd determined through association and dissociation kinetic experiments” value at hA3AR [2] (10 nM MRS5449, dissociation initiated after 90 min with 10 μM MRS1220) worked out at 0.00665 ± 0.00055 µM. In addition, the “Nonspecific binding, % of total binding” value at hA3AR [2] (10 nM MRS5449, with 10 μM MRS1220 or 10 μM Cl-IB-MECA or in control CHO cells) is “less than 1%”. Further, at hA3AR [2] (FCM saturation binding, […] to 250 nM, nonspecific with 10 μM MRS1220, read-out: Kd (equilibrium binding constant, saturation binding)), the Kd is 0.00515 ± 0.00111 µM. In addition, the “fluorescence emission (MFI) of cell-bound ligand” value at hA3AR [2] (preliminary FCM experiments, hA3AR CHO cells, 1 h at 37° C., concentration about two times Ki) is “sufficiently high MFI”. This molecule registered a Kb at A3AR of 0.0048 µM.
For `Nc1nc(NCCc2ccc(O)cc2)nc2nc(-c3ccco3)nn12` [ZM241385, 4-(2-[7-amino-2-(2-furyl)[1,2,4]triazolo[2,3-a][1,3,5]triazin-5-ylamino]ethyl)phenol], on hA3AR [3], the Ki was 0.3 ± 0.027 µM.
The term melting point denotes the temperature of the solid-liquid transition. `Cn1cc2c(nc(NC(=O)Nc3ccc(CC(=O)NCCCOCCOCCOCCCN)cc3)n3nc(-c4ccco4)nc23)n1.O=C(O)C(F)(F)F` [Compound 21, N-(3-(2-(2-(3-aminopropoxy)ethoxy)ethoxy)propyl)-2-(4-(3-(2-(furan-2-yl)-8-methyl-8H-pyrazolo[4,3-e][1,2,4]triazolo[1,5-c]pyrimidin-5-yl)ureido)phenyl)acetamide trifluoroacetate salt] returned a melting point of 133 to 140 °C. For the same molecule, the A1 % inhibition at hA1 AR (Table 3) is given as 1% ± 1%. Further, at hA2AAR (Table 3), the Ki worked out at 0.328 ± 0.077 µM. At hA3AR [1] (Table 3), the Ki was 0.0103 ± 0.0004 µM.
`Cn1cc2c(nc(NC(=O)Nc3ccc(CC(=O)NCCCCN)cc3)n3nc(-c4ccco4)nc23)n1.O=C(O)C(F)(F)F` [Compound 18, N-(4-Aminobutyl)-2-(4-(3-(2-(furan-2-yl)-8-methyl-8H-pyrazolo[4,3-e][1,2,4]triazolo[1,5-c]pyrimidin-5-yl)ureido)phenyl)acetamide trifluoroacetate salt]: the melting point was 167 to 173 °C. The A1 % inhibition at hA1 AR (Table 3) is 4% ± 1%. Also, the Ki on hA2AAR (Table 3) was 0.172 ± 0.033 µM. Further, at hA3AR [1] (Table 3), the Ki amounted to 0.006 ± 0.00129 µM.
`Nc1nc2ccc(Cl)cc2c2nc(-c3ccco3)nn12` [Compound 7] registered a Ki at hA3AR [3] of 0.0161 ± 0.0062 µM.
For `Cn1cc2c(nc(NC(=O)Nc3ccc(CC(=O)NCCCCCN)cc3)n3nc(-c4ccco4)nc23)n1.O=C(O)C(F)(F)F` [Compound 19, N-(5-aminopentyl)-2-(4-(3-(2-(furan-2-yl)-8-methyl-8H-pyrazolo[4,3-e][1,2,4]triazolo[1,5-c]pyrimidin-5-yl)ureido)phenyl)acetamide trifluoroacetate salt], the melting point is 170 to 178 °C. Moreover, the A1 % inhibition on hA1 AR (Table 3) is 6% ± 4%. At hA2AAR (Table 3), the Ki came to 0.203 ± 0.052 µM. Further, the Ki on hA3AR [1] (Table 3) was 0.00266 ± 0.00048 µM.
For `Cn1cc2c(nc(NC(=O)Nc3ccc(CC(=O)NCCOCCOCCN)cc3)n3nc(-c4ccco4)nc23)n1.O=C(O)C(F)(F)F` [Compound 20, 2-(2-(2-(2-(4-(3-(2-(furan-2-yl)-8-methyl-8H-pyrazolo[4,3-e][1,2,4]triazolo[1,5-c]pyrimidin-5-yl)ureido)phenyl)acetamido)ethoxy)ethoxy)ethanamine trifluoroacetate salt], in that order: 152 to 160 °C, 17% ± 3%, 0.267 ± 0.061 µM and 0.0192 ± 0.0033 µM.
In the case of `C#CCCCCC(=O)Nc1nc2nn(C)cc2c2nc(-c3ccco3)nn12` [Compound 38, N-(2-(furan-2-yl)-8-methyl-8H-pyrazolo[4,3-e][1,2,4]triazolo[1,5-c]pyrimidin-5-yl)hept-6-ynamide], the melting point was 208 to 215 °C (dec.). In addition, at hA1 AR (Table 3), the Ki came out at 0.891 ± 0.265 µM. Also, the Ki at hA2AAR (Table 3) was 0.151 ± 0.033 µM. Moreover, at hA3AR [1] (Table 3), the Ki was determined as 0.00726 ± 0.00104 µM.
On hA3AR [3], `OC[C@H]1O[C@@H](n2cnc3c(NC4CCCC4)ncnc32)[C@H](O)[C@@H]1O` [CPA, (2R,3R,4S,5R)-2-[6-(cyclopentylamino)purin-9-yl]-5(hydroxymethyl)oxolane-3,4-diol] returned a Ki of 1.49 ± 0.23 µM.
The molecule `Cn1cc2c(nc(NC(=O)Nc3ccc(CC(=O)NCCOCCOCCNC(=O)OC(C)(C)C)cc3)n3nc(-c4ccco4)nc23)n1` [Compound 15, tert-Butyl (2-(2-(2-(2-(4-(3-(2-(furan-2-yl)-8-methyl-8H-pyrazolo[4,3-e][1,2,4]triazolo[1,5-c]pyrimidin-5-yl)ureido)phenyl)acetamido)-ethoxy)ethoxy)ethyl)carbamate] had a melting point of 157 to 165 °C. Moreover, the A1 % inhibition at hA1 AR (Table 3) was 7% ± 5%. The Ki at hA2AAR (Table 3) was found to be 0.456 ± 0.096 µM. At hA3AR [1] (Table 3), the Ki came out at 0.0748 ± 0.0101 µM.

Source of the values: patent publication US9227979B2, “Fluorescent antagonists of the A3 adenosine receptor” (The United States of America, as represented by the …, priority 2012, dated 2016).
